Measurements published in PMC9237960, “Identification of a New Antifungal Peptide W1 From a Marine Bacillus amyloliquefaciens Reveals Its Potential in Controlling Fungal Plant Diseases” (Frontiers in Microbiology, 2022).
Values after ≈ are worked out from the molar mass of the structure shown. Peptide text beside a SMILES is read from it.

System: F. oxysporum
Format: cell-based, Fusarium oxysporum
Settings: pH 9.73
Procedure: The minimum inhibitory concentration (MIC) of W1 against F. oxysporum and S. sclerotiorum was determined using the paper disk diffusion method ([Wen et al., 2014]; [Rao et al., 2015]). In brief, the purified W1 was diluted into 20 mM piperazine buffer (pH 9.73) with final concentrations of 0.464, 0.232, 0.116, 0.058, and 0.029 μg/μl, respectively. On paper disks placed 2 cm from the hyphal margin of fungus on a PDA plate, 60 μl of serially diluted samples were added. Later, the plate was incubated at 30°C for 24–48 h. The MIC was determined as the lowest concentration of W1 that could inhibit visible mold growth and was calculated as the total peptide concentration added to each paper disk (microgram per disk). The piperazine buffer (20 mM) was used as the blank control. All assays were repeated three times independently.

For CC[C@H](C)[C@H](NC(=O)[C@H](CC(C)C)NC(=O)[C@H](CC(C)C)NC(=O)[C@H](Cc1ccccc1)NC(=O)[C@H](Cc1ccc(O)cc1)NC(=O)[C@H](CC(C)C)NC(=O)[C@@H](NC(=O)[C@H](C)NC(=O)[C@H](Cc1ccccc1)NC(=O)[C@H](CCSC)NC(=O)[C@H](CC(C)C)NC(=O)[C@@H](NC(=O)[C@@H](NC(=O)[C@@H]1CCCN1C(=O)[C@@H](NC(=O)[C@@H](NC(=O)[C@@H](NC(=O)CN)[C@@H](C)O)[C@@H](C)CC)C(C)C)[C@@H](C)CC)[C@@H](C)CC)C(C)C)C(=O)N[C@@H](CCCNC(=N)N)C(=O)N1CCC[C@H]1C(=O)N[C@@H](CCC(N)=O)C(=O)O [W1] (H-GTIVPIILMFAVLYFLLIRPQ-OH), the “MIC against F. oxysporum” value was 58 µg/mL (≈ 24 µM).
